Data on three compounds can be found in patent publication US4024121A, “(Pyro)-Glu-His-Trp-D-Ser-Tyr-D-Leu-Leu-Arg-Pro-NHR and intermediates” (priority 1976, dated 1977).

The test system of test [1] is LH-RH activity. The test is described as follows: LH-RH activity compared with the natural hormone.
The test system of another test is LH-release. The experiment in a line: LH-release in rats after subcutaneous injection (procedure of Arimura et al.). In kind it is in vivo. Conditions: 50 ng subcutaneously.
The subject of test [2] is LH-RH activity. As to conditions: literature reports; cited from earlier work.

Turning to `CC(C)C[C@H](NC(=O)CNC(=O)[C@H](Cc1ccc(O)cc1)NC(=O)[C@@H](CO)NC(=O)[C@H](Cc1c[nH]c2ccccc12)NC(=O)[C@H](Cc1c[nH]cn1)NC(=O)[C@@H]1CCC(=O)N1)C(=O)N[C@@H](CCCNC(=N)N)C(=O)N1CCC[C@H]1C(=O)NCC(N)=O` [[D-Ser^4]-LH-RH], the “LH-RH activity relative to the natural hormone” value with LH-RH activity [1] was “less than 5%”. On to `CC(C)C[C@H](NC(=O)CNC(=O)[C@H](Cc1ccc(O)cc1)NC(=O)[C@H](CO)NC(=O)[C@H](Cc1c[nH]c2ccccc12)NC(=O)[C@H](Cc1c[nH]cn1)NC(=O)[C@@H]1CCC(=O)N1)C(=O)N[C@@H](CCCNC(=N)N)C(=O)N1CCC[C@H]1C(=O)NCC(N)=O` [LH-RH, (pyro)-Glu-His-Trp-Ser-Tyr-Gly-Leu-Arg-Pro-Gly-NH2], for which, in the test on LH-release, the “duration of effect of the injection (LH release)” value is reported as “no effects of the injection are observed after one hour” and the “time at which peak activity (LH release) is reached after injection” value is around 15 min. With [D-Ala^6 ]-LH-RH, in the test with LH-RH activity [2], the “activity compared with LH-RH” value is on record as “more active than LH-RH”.
